Measurements reported in patent US10611740B2, “Aryl dihydro-2H-benzo[b][1,4]oxazine sulfonamide and related compounds for use as agonists of RORγ and the treatment of disease” (Lycera Corporation, priority 2015, dated 2020).
pEC50: −log10 of the molar value.

How the values were obtained:
[1] = molecular target: T1, Gal4-RORγ-LBD (Homo sapiens, UniProt P51449); assay: Gal4-RORγ Luciferase Reporter Assay in HEK-293T Cells; assay type: cell-based; conditions: HEK-293 cells
T1 construct: expressed in transfected cells; host or cells: HEK-293 cells (pcDNA3.1neo plasmid)
T1 sequence (P51449 269-508 limits assumed): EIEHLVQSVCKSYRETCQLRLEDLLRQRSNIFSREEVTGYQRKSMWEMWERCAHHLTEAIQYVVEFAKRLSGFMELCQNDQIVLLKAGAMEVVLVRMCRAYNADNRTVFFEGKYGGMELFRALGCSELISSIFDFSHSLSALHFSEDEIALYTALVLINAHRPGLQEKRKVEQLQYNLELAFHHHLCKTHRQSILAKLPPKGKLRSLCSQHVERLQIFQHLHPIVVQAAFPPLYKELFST
In short: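 Luminescence read-out (One-Glo, 10 min RT) after overnight compound exposure at 37 °C in HEK-293 cells carrying Gal4-RORγ-LBD plus a Gal4-luciferase reporter, in the presence of 2 μM ursolic acid. Max Response is the upper plateau from a 4-parameter logistic fit, normalized to untreated signal = 100.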

[2] = molecular target: T2, RORγ-LBD (Homo sapiens, UniProt P51449); assay: RORγ-Ligand Binding Domain (LBD) TR-FRET Assay; assay type: biochemical;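 as to TR-FRET Assay Max Response: 665/615 nm ratio relative to signal without ursolic acid or compound set at 100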
T2 construct: made in house; host or cells: SF9 cells (baculovirus)
T2 sequence (P51449 269-508 limits assumed): T1 sequence (P51449 269-508 limits assumed)
In short: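 This TR-FRET coactivator assay pairs baculovirus-expressed His-RORγ-LBD (~3 nM final) with biotin-SRC1 LXXLL peptide at 200 nM final in pH 7.0 Tris/KCl/EDTA/DTT/BSA buffer.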

[3] = luciferase reporter, with 2 μM ursolic acid

pEC50 ([1]; 2 μM ursolic acid) | pEC50 [2] | pEC50 [1, 3] | Compound | Gal4-RORγ Assay Max Response ([1]; 2 μM ursolic acid) | TR-FRET Assay Max Response [2] | Gal4-RORγ Assay Max Response [1, 3]
> 6.30 | > 6.30 | – | CC(=O)NC(C)(C)C[C@H]1CN(S(=O)(=O)c2cccc(C(F)(F)F)c2)c2cc(-c3cc(F)ccc3F)ccc2O1 [Compound 30CV, (S)-N-(1-(6-(2,5-difluoro-phenyl)-4-((3-(trifluoromethyl)-phenyl)sulfonyl)-3,4-dihydro-2H-benzo[b][1,4]oxazin-2-yl)-2-methylpropan-2-yl)acetamide] | * (The symbol “*” indicates a value in the range of 25 to 90) | *** (The symbol “***” indicates a value in the range of greater than 150 to 200) | –
> 6.30 | > 6.30 | – | C[C@]1(C(=O)O)C[C@H](C[C@H]2CN(S(=O)(=O)c3cccc(C(F)(F)F)c3)c3cc(-c4cccc(C(F)(F)F)n4)ccc3O2)C1 [Compound 60N, (1S,3r)-1-methyl-3-(((S)-4-((3-(trifluoromethyl)phenyl)-sulfonyl)-6-(6-(trifluoro-methyl)pyridin-2-yl)-3,4-dihydro-2H-benzo[b][1,4]-oxazin-2-yl)methyl)cyclobutane-1-carboxylic acid] | ** (The symbol “**” indicates a value in the range of greater than 90 to 150) | ** (The symbol “**” indicates a value in the range of greater than 90 to 150) | –
– | > 6.30 | > 6.30 | NS(=O)(=O)CCC(=O)NC[C@H]1CN(S(=O)(=O)c2cccc(C(F)(F)F)c2)c2cc(-c3cc(F)ccc3F)ccc2O1 [Compound 30AL, (S)-N-((6-(2,5-difluorophenyl)-4-((3-(trifluoromethyl)phenyl)-sulfonyl)-3,4-dihydro-2H-benzo[b][1,4]oxazin-2-yl)methyl)-3-sulfamoyl-propanamide] | – | **** (The symbol “****” indicates a value greater than 200) | * (The symbol “*” indicates a value in the range of 25 to 90)
– | > 6.30 | 5.30 to 6.30 | CN(C)c1ccnc(-c2ccc3c(c2)N(S(=O)(=O)c2cccc(C(F)(F)F)c2)C[C@H](CCC(=O)O)O3)n1 [Compound 4AU, (S)-3-(6-(4-(dimethylamino)-pyrimidin-2-yl)-4-((3-(trifluoromethyl)phenyl)-sulfonyl)-3,4-dihydro-2H-benzo[b][1,4]oxazin-2-yl)propanoic acid] | – | **** (The symbol “****” indicates a value greater than 200) | ** (The symbol “**” indicates a value in the range of greater than 90 to 150)
– | > 6.30 | 5.30 to 6.30 | CC(=O)N[C@@H](C(=O)NC[C@H]1CN(S(=O)(=O)c2cccc(C(F)(F)F)c2)c2cc(-c3cc(F)ccc3F)ccc2O1)C(C)C [Compound 30AS] | – | *** (The symbol “***” indicates a value in the range of greater than 150 to 200) | * (The symbol “*” indicates a value in the range of 25 to 90)
> 6.30 | > 6.30 | – | CC(C)(C[C@H]1CN(S(=O)(=O)c2cccc(C(F)(F)F)c2)c2cc(-c3ccccc3OC(F)(F)F)ccc2O1)C(=O)O [Compound 32Z, (S)-2,2-dimethyl-3-(6-(2-(trifluoromethoxy)phenyl)-4-((3-(trifluoromethyl)phenyl)sulfonyl)-3,4-dihydro-2H-benzo[b][1,4]-oxazin-2-yl)propanoic acid] | ** (The symbol “**” indicates a value in the range of greater than 90 to 150) | *** (The symbol “***” indicates a value in the range of greater than 150 to 200) | –
– | > 6.30 | > 6.30 | O=C1CC(C(=O)NC[C@H]2CN(S(=O)(=O)c3cccc(C(F)(F)F)c3)c3cc(-c4cc(F)ccc4F)ccc3O2)C1 [Compound 30AA, (S)-N-((6-(2,5-difluorophenyl)-4-((3-(trifluoromethyl)phenyl)-sulfonyl)-3,4-dihydro-2H-benzo[b][1,4]oxazin-2-yl)methyl)-3-oxocyclobutane-1-carboxamide] | – | **** (The symbol “****” indicates a value greater than 200) | * (The symbol “*” indicates a value in the range of 25 to 90)
– | > 6.30 | 5.30 to 6.30 | N#CCC(=O)NC[C@H]1CN(S(=O)(=O)c2cccc(C(F)(F)F)c2)c2cc(-c3cccc(C(F)(F)F)n3)ccc2O1 [Compound 30BH, (S)-2-cyano-N-((4-((3-(trifluoromethyl)phenyl)-sulfonyl)-6-(6-(trifluoro-methyl)pyridin-2-yl)-3,4-dihydro-2H-benzo[b][1,4]-oxazin-2-yl)methyl)acetamide] | – | *** (The symbol “***” indicates a value in the range of greater than 150 to 200) | ** (The symbol “**” indicates a value in the range of greater than 90 to 150)
– | > 6.30 | > 6.30 | COc1cc(S(=O)(=O)N2C[C@H](CCNC(=O)C(C)(C)O)Oc3ccc(-c4cccc(C(F)(F)F)n4)cc32)ccc1F [Compound 30O, (S)-N-(2-(4-((4-fluoro-3-methoxyphenyl)sulfonyl)-6-(6-(trifluoromethyl)pyridin-2-yl)-3,4-dihydro-2H-benzo[b][1,4]-oxazin-2-yl)ethyl)-2-hydroxy-2-methylpropanamide] | – | **** (The symbol “****” indicates a value greater than 200) | ** (The symbol “**” indicates a value in the range of greater than 90 to 150)
– | > 6.30 | 5.30 to 6.30 | CNc1cccc(-c2ccc3c(c2)N(S(=O)(=O)c2cccc(C(F)(F)F)c2)C[C@H](CCC(=O)O)O3)n1 [Compound 4AM, (S)-3-(6-(6-(methylamino)-pyridin-2-yl)-4-((3-(trifluoromethyl)phenyl)-sulfonyl)-3,4-dihydro-2H-benzo[b][1,4]oxazin-2-yl)propanoic acid] | – | **** (The symbol “****” indicates a value greater than 200) | ** (The symbol “**” indicates a value in the range of greater than 90 to 150)
